Experiments:
Format in all cases: biochemical
Settings in all cases: 1 μM inhibitor concentration
PIM1 = PIM1 (Homo sapiens (Human), UniProt P11309); test: PIM1 kinase selectivity assay
Method: (§1) PIM1 (5-20 mU diluted in 50 mM Tris pH 7.5, 0.1 mM EGTA, 0.1% b-mercaptoethanol, 1 mg/ml BSA) is assayed against a substrate peptide ([…]) in a final volume of 25.5 μl containing 50 mM Tris pH 7.5, 0.05% b-mercaptoethanol, 300 μM substrate peptide, 10 mM magnesium acetate and 0.02 mM [33P-g-ATP] (50-1000 cpm/pmole) and incubated for 30 min at room temperature. Assays are stopped by addition of 5 μl of 0.5 M (3%) orthophosphoric acid and then harvested onto P81 Unifilter plates with a wash buffer of 50 mM orthophosphoric acid.

LKB1 = LKB1 (Homo sapiens (Human), UniProt Q15831); test: LKB1 kinase selectivity assay
Method: (§2) LKB1 (5-20 mU diluted in 50 mM Tris pH 7.5, 0.1 mM EGTA, 0.1% β-mercaptoethanol, 1 mg/ml BSA) is assayed against […] in a final volume of 25.5 μl containing 50 mM Tris pH 7.5, 0.1 mM EGTA, 0.2 mM […], 10 mM magnesium acetate and 0.02 mM [33P-γ-ATP] (50-1000 cpm/pmole) and incubated for 30 min at room temperature. Assays are stopped by addition of 5 μl of 0.5 M (3%) orthophosphoric acid and then harvested onto P81 Unifilter plates with a wash buffer of 50 mM orthophosphoric acid.

MELK = MELK (Homo sapiens (Human), UniProt Q14680); test: MELK kinase selectivity assay
Method: as §1, with “MELK” for “PIM1”, “200” for “300”, “0.05” for “0.02”

PDK1 = PDK1 (Homo sapiens (Human), UniProt O15530); test: PDK1 kinase selectivity assay
Method: PDK1 (5-20 mU diluted in 50 mM Tris pH 7.5, 0.05% b-mercaptoethanol, 1 mg/ml BSA) is assayed against PDKtide ([…]-[…]) in a final volume of 25.5 μl containing 50 mM Tris pH 7.5, 0.05% b-mercaptoethanol, 100 μM substrate peptide, 10 mM magnesium acetate and 0.02 mM [33P-g-ATP](50-1000 cpm/pmole) and incubated for 30 min at room temperature Assays are stopped by addition of 5 μl of 0.5 M (3%) orthophosphoric acid and then harvested onto P81 Unifilter plates with a wash buffer of 50 mM orthophosphoric acid.

HIPK2 = HIPK2 (Homo sapiens (Human), UniProt Q9H2X6); test: HIPK2 kinase selectivity assay
Method: (§3) 5-20 mU of HIPK2 (diluted in 50 mM Tris (pH 7.5), 0. mM EGTA, 1 mg/ml BSA, 0.1%, b-Mercaptoethanol) is assayed against MBP in a final volume of 25.5 μl containing 50 mM Tris (pH 7.5), 0.1 mM EGTA, 0.1%, b-Mercaptoethanol, 0.33 mg/ml MBP, 10 mM magnesium acetate and 0.005 mM [33P-g-ATP](500-1000 cpm/pmole) and incubated for 30 mins at room temperature. Assays are stopped by addition of 5 μl of 0.5M (3%) orthophosphoric acid. Assays are harvested onto P81 Unifilter plates using a wash buffer of 50 mM orthophosphoric acid.

CK1δ = CK1δ (Homo sapiens (Human), UniProt P48730); test: CK1 kinase selectivity assay
Method: CK1 (5-20 mU diluted in 20 mM Hepes pH7.5, 0.15 M NaCl, 0.1 mM EGTA, 0.1% Triton X-100, 5 mM DTT, 50% glycerol) is assayed against CKI peptide ([…]) in a final volume of 25.5 μl containing 20 mM Hepes pH 7.5, 0.15 M NaCl, 0.1 mM EDTA, 5 mM DTT, 0.1% Triton-X 100, CKI peptide (0.5 mM), 10 mM magnesium acetate and 0.02 mM [33P-g-ATP](500-1000 cpm/pmole) and incubated for 30 min at room temperature. Assays are stopped by addition of 5 μl of 0.5 M (3%) orthophosphoric acid and then harvested onto P81 Unifilter plates with a wash buffer of 50 mM orthophosphoric acid.

NUAK1 = NUAK1 (Homo sapiens (Human), UniProt O60285); test: NUAK1 kinase selectivity assay
Method: as §2, with “NUAK1” for “LKB1”, “0-mercaptoethanol,” for “β-mercaptoethanol,”, “0.3” for “0.2”

ERK1 = ERK1 (Homo sapiens (Human), UniProt P27361); test: ERK1 kinase selectivity assay
Method: as §3, with “mU of ERK1 (diluted in” for “mU of HIPK2 (diluted in”, “(pH 7.5), 0.1 mM EGTA,” for “(pH 7.5), 0. mM EGTA,”

Sequence of PDK1 (O15530 whole entry): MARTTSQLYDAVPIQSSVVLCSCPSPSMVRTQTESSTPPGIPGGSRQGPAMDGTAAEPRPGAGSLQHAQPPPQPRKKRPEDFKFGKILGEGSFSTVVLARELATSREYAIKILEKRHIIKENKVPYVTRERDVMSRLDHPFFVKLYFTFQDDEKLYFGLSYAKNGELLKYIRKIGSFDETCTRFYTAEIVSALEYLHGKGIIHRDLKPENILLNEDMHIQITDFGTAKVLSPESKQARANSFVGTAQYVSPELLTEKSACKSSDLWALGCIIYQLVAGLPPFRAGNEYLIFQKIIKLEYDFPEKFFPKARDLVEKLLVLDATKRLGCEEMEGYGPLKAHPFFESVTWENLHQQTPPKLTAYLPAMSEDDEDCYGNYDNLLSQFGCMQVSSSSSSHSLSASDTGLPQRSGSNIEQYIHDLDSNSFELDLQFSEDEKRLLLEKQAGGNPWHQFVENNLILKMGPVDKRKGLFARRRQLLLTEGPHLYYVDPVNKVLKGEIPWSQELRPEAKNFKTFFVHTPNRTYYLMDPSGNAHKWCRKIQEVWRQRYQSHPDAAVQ
Sequence of ERK1 (P27361 whole entry, species assumed): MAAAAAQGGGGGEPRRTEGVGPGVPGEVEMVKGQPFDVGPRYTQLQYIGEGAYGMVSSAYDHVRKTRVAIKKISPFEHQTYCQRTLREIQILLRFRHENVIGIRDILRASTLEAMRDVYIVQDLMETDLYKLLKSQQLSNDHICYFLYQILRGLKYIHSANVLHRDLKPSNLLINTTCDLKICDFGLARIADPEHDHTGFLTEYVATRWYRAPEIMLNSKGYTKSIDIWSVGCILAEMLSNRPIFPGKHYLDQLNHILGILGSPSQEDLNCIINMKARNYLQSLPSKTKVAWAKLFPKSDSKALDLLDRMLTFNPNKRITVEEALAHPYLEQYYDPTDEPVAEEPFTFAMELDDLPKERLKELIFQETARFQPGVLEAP
Sequence of NUAK1 (O60285 whole entry, species assumed): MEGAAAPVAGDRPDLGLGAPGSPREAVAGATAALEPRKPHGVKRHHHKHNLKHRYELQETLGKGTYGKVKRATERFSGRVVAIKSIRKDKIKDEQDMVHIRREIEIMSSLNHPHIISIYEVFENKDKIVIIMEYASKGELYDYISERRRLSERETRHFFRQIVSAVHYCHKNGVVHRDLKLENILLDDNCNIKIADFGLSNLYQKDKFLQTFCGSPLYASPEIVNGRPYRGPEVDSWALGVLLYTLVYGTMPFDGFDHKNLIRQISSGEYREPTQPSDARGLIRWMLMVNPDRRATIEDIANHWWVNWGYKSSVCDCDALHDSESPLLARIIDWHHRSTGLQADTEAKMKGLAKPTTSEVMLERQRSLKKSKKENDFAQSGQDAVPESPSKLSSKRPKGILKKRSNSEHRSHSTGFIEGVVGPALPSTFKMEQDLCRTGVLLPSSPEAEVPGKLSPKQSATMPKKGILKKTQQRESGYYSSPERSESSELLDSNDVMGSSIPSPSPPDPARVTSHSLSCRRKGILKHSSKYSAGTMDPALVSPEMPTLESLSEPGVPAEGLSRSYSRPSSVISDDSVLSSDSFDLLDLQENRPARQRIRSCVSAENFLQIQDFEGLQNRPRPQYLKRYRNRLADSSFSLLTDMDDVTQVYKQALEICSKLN
Sequence of CK1δ (P48730 whole entry): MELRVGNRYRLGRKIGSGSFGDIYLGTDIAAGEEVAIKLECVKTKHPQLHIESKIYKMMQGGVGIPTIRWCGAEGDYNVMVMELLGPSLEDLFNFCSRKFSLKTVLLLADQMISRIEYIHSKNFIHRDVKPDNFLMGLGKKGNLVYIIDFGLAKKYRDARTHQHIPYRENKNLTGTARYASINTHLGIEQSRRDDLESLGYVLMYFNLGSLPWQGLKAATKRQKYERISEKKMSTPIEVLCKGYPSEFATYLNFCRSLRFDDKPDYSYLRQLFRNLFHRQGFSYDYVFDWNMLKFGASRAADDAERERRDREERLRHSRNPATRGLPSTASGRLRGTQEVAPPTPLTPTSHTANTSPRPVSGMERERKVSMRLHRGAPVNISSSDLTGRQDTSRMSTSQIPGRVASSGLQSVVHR
Sequence of PIM1 (P11309 whole entry, species assumed): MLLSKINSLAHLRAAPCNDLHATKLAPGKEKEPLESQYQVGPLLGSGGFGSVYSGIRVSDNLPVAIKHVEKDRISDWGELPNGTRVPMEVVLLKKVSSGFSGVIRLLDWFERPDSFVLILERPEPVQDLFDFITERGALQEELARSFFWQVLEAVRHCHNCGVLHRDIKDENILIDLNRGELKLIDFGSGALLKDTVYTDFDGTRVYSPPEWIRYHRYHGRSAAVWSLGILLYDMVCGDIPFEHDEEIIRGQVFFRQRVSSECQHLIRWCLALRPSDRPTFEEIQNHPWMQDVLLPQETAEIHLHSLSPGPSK
Sequence of LKB1 (Q15831 whole entry, species assumed): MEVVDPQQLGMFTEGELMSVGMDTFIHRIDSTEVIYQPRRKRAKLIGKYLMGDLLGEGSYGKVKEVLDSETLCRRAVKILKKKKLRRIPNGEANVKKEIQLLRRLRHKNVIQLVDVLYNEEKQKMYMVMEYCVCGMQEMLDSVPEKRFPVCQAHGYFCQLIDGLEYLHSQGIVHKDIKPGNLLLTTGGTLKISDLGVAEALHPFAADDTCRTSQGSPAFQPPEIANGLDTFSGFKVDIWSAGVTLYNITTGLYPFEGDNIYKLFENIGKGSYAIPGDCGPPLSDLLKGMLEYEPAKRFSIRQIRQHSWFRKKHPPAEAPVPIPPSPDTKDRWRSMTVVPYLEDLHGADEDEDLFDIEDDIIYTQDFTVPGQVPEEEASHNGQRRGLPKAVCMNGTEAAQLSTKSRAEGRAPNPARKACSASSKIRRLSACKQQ
Sequence of LKB1 (Q7RTN6 whole entry partner, species assumed): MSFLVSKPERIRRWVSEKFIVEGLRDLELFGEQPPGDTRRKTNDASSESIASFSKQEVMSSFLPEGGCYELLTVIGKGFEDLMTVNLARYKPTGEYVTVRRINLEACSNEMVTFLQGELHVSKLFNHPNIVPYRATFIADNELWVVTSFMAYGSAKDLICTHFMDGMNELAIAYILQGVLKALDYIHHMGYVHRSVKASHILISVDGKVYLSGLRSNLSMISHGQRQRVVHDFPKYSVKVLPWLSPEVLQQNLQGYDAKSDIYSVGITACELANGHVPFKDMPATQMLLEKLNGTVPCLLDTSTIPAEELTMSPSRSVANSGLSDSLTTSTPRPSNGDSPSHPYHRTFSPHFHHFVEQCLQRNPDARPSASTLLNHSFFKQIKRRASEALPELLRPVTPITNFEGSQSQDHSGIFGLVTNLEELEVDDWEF
Sequence of LKB1 (Q9Y376 whole entry partner, species assumed): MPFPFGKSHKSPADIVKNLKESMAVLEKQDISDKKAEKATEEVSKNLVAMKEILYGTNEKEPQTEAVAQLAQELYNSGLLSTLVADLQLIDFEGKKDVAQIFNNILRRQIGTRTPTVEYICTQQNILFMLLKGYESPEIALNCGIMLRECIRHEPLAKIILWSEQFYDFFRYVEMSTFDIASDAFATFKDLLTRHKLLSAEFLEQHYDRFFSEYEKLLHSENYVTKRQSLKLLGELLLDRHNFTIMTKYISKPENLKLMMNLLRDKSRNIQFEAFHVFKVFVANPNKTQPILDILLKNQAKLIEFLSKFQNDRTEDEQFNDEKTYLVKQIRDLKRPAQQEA
Sequence of HIPK2 (Q9H2X6 whole entry, species assumed): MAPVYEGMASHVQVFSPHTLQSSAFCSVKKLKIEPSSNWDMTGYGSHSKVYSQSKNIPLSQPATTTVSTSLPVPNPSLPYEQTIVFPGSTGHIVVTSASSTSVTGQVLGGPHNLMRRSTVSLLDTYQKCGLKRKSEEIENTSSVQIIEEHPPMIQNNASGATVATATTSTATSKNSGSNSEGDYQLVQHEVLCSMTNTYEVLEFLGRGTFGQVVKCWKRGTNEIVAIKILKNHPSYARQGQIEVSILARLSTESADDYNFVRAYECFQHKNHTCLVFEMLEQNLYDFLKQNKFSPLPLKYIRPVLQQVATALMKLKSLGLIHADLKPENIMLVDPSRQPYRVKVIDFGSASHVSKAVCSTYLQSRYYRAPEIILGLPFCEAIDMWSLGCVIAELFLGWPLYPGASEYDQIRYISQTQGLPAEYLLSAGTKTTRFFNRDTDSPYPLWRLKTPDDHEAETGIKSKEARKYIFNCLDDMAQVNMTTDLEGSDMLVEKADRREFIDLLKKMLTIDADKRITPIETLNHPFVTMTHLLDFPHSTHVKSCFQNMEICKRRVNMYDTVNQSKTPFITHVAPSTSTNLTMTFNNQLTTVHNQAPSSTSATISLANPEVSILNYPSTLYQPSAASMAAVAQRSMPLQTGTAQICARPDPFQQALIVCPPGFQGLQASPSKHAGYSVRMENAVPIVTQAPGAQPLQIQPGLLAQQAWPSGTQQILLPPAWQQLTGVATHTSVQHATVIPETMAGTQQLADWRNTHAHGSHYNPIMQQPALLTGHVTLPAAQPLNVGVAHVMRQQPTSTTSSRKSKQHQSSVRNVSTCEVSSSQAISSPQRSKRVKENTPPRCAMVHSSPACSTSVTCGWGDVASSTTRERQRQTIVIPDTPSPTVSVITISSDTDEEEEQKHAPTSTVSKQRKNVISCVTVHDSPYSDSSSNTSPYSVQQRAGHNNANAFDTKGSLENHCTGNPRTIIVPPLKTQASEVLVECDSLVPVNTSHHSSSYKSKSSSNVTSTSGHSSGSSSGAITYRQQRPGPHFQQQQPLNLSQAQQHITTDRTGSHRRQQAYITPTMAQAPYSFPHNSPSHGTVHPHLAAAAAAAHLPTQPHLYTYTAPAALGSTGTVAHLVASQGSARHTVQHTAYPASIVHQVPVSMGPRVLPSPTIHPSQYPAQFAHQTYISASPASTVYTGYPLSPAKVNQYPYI

Compound | percentage inhibition of PIM1 (PIM1) [percentage] | percentage inhibition of LKB1 (LKB1) [percentage] | percentage inhibition of MELK (MELK) [percentage] | percentage inhibition of PDK1 (PDK1) [percentage] | percentage inhibition of HIPK2 (HIPK2) [percentage] | percentage inhibition of CK1δ (CK1δ) [percentage] | percentage inhibition of NUAK1 (NUAK1) [percentage] | percentage inhibition of ERK1 (ERK1) [percentage]
c1cc2[nH]nc3c2c(n1)N(C1CCOCC1)CCC3 [Example 29, 6-(tetrahydro-2H-pyran-4-yl)-6,7,8,9-tetrahydro-2H-1,2,5,6-tetraazabenzo[cd]azulene] | 0 | 6 | 24 | 2 | 3 | 11 | 7 | 0
c1cc2[nH]nc3c2c(n1)N(C1CCC1)CCC3 [Example 22, 6-cyclobutyl-6,7,8,9-tetrahydro-2H-1,2,5,6-tetraazabenzo[cd]azulene] | 0 | 20 | 10 | 7 | 11 | 0 | 8 | 0
CN1CCC(N2Cc3ccccc3-c3n[nH]c4ccnc2c34)CC1 [Example 55] | 26 | 0 | 78 | 42 | 1 | 12 | 76 | 4
CC(C)n1ncc2c1CN(C1CCN(C)CC1)c1nccc3[nH]nc-2c13 [Example 68] | 77 | 0 | 72 | 21 | 0 | 3 | 65 | 11
c1cc2[nH]nc3c2c(n1)N(C1CCCC1)CCC3 [Example 23, 6-cyclopentyl-6,7,8,9-tetrahydro-2H-1,2,5,6-tetraazabenzo[cd]azulene] | 0 | 16 | 1 | 0 | 3 | 0 | 17 | 0

From patent US10918645B2 (LIFEARC, priority 2016, dated 2021)
